Measurements reported in PubChem BioAssay (NCI).
Several values for one entry are separate records, joined by “and”; a condition that tells them apart may be missing. Equal values may be shown once.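 48-hour exposure; five concentrations; linearly interpolated endpoints. GI50 marks 50% less growth. TGI: total growth inhibition.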 Starred links: 1 amine or outer side, 2 acyl side, 3 side chain; linkers in the order of their positions; H or OH if unused. Positions of bridges follow the written chain, without caps; N, C: chain ends. Non-standard residues stand in square brackets, D forms with d. Residues, ends and D or L forms follow the SMILES beside them. Chains are numbered I, II in the order given. Actinocin(9to1) = Cc1c2oc3c(C)ccc(C(=O)[*:1])c3nc-2c(C(=O)[*:2])c(N)c1=O; NMeY = CN[CH](Cc1ccc(O)cc1)C(=O)O; Sar = CNCC(=O)O

Assays:
Test in all cases: NCI tumour cell line growth inhibition, 48 h
HOP-62 NSCLC = system: HOP-62 NSCLC
NCI-H226 lung = system: NCI-H226 lung
PC-3 prostate = system: PC-3 prostate
SK-MEL-28 melanoma = system: SK-MEL-28 melanoma
SK-MEL-5 melanoma = system: SK-MEL-5 melanoma
SK-OV-3 ovarian = system: SK-OV-3 ovarian
CCRF-CEM leukemia = system: CCRF-CEM leukemia

| Structure (SMILES) | TGI (HOP-62 NSCLC) | TGI (NCI-H226 lung) | TGI (PC-3 prostate) | TGI (SK-MEL-28 melanoma) | TGI (SK-MEL-5 melanoma) | TGI (SK-OV-3 ovarian) | TGI (CCRF-CEM leukemia) | GI50 (CCRF-CEM leukemia) | GI50 (PC-3 prostate) | GI50 (SK-MEL-28 melanoma) | GI50 (SK-MEL-5 melanoma) | GI50 (SK-OV-3 ovarian) |
| --- | --- | --- | --- | --- | --- | --- | --- | --- | --- | --- | --- | --- |
| Fc1ccc2c(c1)nc1n2C(c2c(Cl)cccc2Cl)SC1 (stereo not drawn) | 29.2 µM | 37.7 µM | 28.3 µM | 24.3 µM | 21.1 µM | 28.3 µM | – | – | – | – | – | – |
| C=CCc1cccc2cc(C(=O)NCc3ccccc3)c(=N)oc12 | > 100 µM | 79.3 µM | > 100 µM | > 100 µM | 64.4 µM | > 100 µM | > 100 µM | – | – | – | – | – |
| COC(=O)c1ccc(/C=C/c2cc(O)ccc2O)cc1 | > 69.3 µM | > 27 µM | 22.2 µM | 43.4 µM | > 25.5 µM | – | 0.719 µM | – | – | – | – | – |
| COC(=O)c1c(O)ccc2c1c1c(n2Cc2cc(OC)cc(OC)c2)C(=O)c2ccccc2C1 | > 100 µM | > 100 µM | 49.1 µM | 60.9 µM | > 100 µM | > 100 µM | 67.5 µM | – | – | – | – | – |
| COc1cccc(C(=O)Oc2ccc(OS(=O)(=O)c3ccc(C)cc3)cc2)c1C#N | > 100 µM | > 100 µM | > 100 µM | > 100 µM | 31.2 µM | – | > 100 µM | – | – | – | – | – |
| NC(N)=NCCN1CC2CCC(CC2)C1 | > 100 µM | > 100 µM | > 100 µM | > 100 µM | > 100 µM | > 100 µM | – | – | – | – | – | – |
| CC1(C)/C(=N\NC(N)=O)C2CCC1C2 (stereo not drawn) | > 100 µM | > 100 µM | > 100 µM | > 100 µM | > 100 µM | > 100 µM | > 100 µM | – | – | – | – | – |
| O=c1[nH]nnc2c1sc1ncccc12 | > 100 µM | > 100 µM | > 100 µM | > 100 µM | > 100 µM | > 100 µM | > 100 µM | – | – | – | – | – |
| O=C1COc2cccnc2N1CCCCO | > 100 µM | – | > 100 µM | > 100 µM | > 100 µM | > 100 µM | > 100 µM | – | – | – | – | – |
| Cc1ccc(-n2cnc(C(=N)C#N)c2N)cc1 | > 100 µM | > 100 µM | > 100 µM | > 100 µM | > 100 µM | > 100 µM | > 100 µM | – | – | – | – | – |
| CCOC(=O)Nc1[nH]cc(-c2ccccc2)c1C#N | > 100 µM | > 100 µM | > 100 µM | > 100 µM | > 100 µM | > 100 µM | > 100 µM | – | – | – | – | – |
| C=CCn1c(N)c(C#N)c(C#N)c1-c1ccccc1 | > 100 µM | > 100 µM | > 100 µM | – | > 100 µM | > 100 µM | > 100 µM | – | – | – | – | – |
| COc1cccc(C2c3cc4c(cc3OC(N3CCCCC3)C2C)OCO4)c1O (stereo not drawn) | 13.7 µM | 46.7 µM | > 79.8 µM | 73.2 µM | 16.3 µM | > 79.1 µM | 13.9 µM | – | – | – | – | – |
| O=C1C=CC(=O)c2c1ccc1c3ccccc3n(CCCCCn3c4ccccc4c4ccc5c(c43)C(=O)C=CC5=O)c21 | > 100 µM | > 100 µM | 33.9 µM | 31.5 µM | > 86.1 µM | > 100 µM | 6.58 µM | – | – | – | – | – |
| Cc1ccc(C2SCC(=O)N2c2ccc(-n3c(-c4ccccc4)nc4ccccc4c3=O)cc2)cc1 (stereo not drawn) | 53.9 µM | 57.3 µM | 55.4 µM | > 100 µM | 31.9 µM | 40.5 µM | > 100 µM | – | – | – | – | – |
| Cc1[nH]c(=O)nc2nc3ccc(Cl)cc3c(NCCNCCO)c12 | 20.6 µM | 29.8 µM | 27.4 µM | 31.8 µM | 25.4 µM | 23.9 µM | 28.1 µM | – | – | – | – | – |
| NC(N)=NS(=O)(=O)c1ccc(NNc2c3ccccc3nc3c(C(=O)Nc4ccc(S(=O)(=O)Nc5ncccn5)cc4)cccc23)cc1 | > 100 µM | – | > 100 µM | > 100 µM | > 100 µM | – | > 100 µM | – | – | – | – | – |
| Cc1c(C)c2c(c(N)c1C#N)C(=O)N(NC(=O)c1ccccc1)C2=O | – | > 100 µM | > 100 µM | > 100 µM | > 100 µM | – | > 100 µM | – | – | – | – | – |
| CC(=O)c1ccccc1NP(=O)(c1ccccc1)c1ccccc1 | > 100 µM | – | > 100 µM | > 100 µM | > 100 µM | 60.8 µM | > 100 µM | – | – | – | – | – |
| COc1cc(C2C3C=CC=C4CC=CC(=C43)C3CCC(=O)N32)cc(OC)c1OC (stereo not drawn) | > 100 µM | 36.3 µM | > 100 µM | > 100 µM | – | > 100 µM | – | – | – | – | – | – |
| O=C(/C=C/c1ccccc1)Oc1cccc(O)c1 | > 100 µM | > 100 µM | > 100 µM | 66.8 µM | > 100 µM | > 100 µM | – | – | – | – | – | – |
| CC(=O)Nc1ccc(N=Nc2c(O)c(S(=O)(=O)O)cc3cc(S(=O)(=O)O)ccc23)cc1 | > 100 µM | > 100 µM | > 100 µM | > 100 µM | > 100 µM | > 100 µM | – | – | – | – | – | – |
| O=C1Nc2cccc(Cl)c2/C1=C\c1c(Cl)nc2n1CCS2 | > 100 µM | – | > 100 µM | > 100 µM | > 100 µM | > 100 µM | > 100 µM | – | – | – | – | – |
| CCCNC(=O)NNC(=O)c1c[nH]c2nc(C)ccc2c1=O | > 100 µM | > 100 µM | > 100 µM | > 100 µM | > 100 µM | – | > 100 µM | – | – | – | – | – |
| Nc1c(C(=O)O)nnc2ccc(Cl)cc12 | > 100 µM | > 100 µM | > 100 µM | – | > 100 µM | > 100 µM | > 100 µM | – | – | – | – | – |
| N#Cc1n[nH]n(-c2ccc(Br)cc2)c1=O | > 100 µM | > 100 µM | > 100 µM | > 100 µM | – | > 100 µM | > 100 µM | – | – | – | – | – |
| CC(=O)Nc1sc(Br)cc1S(=O)(=O)c1ccc(Cl)cc1 | – | 57.1 µM | 43.1 µM | > 100 µM | – | > 100 µM | > 100 µM | – | – | – | – | – |
| Cc1c2oc3c(C)ccc(C(=O)NC4C(=O)NC(C(C)C)C(=O)N5CCCC5C(=O)N(C)CC(=O)N(C)C(Cc5ccc(O)cc5)C(=O)OC4C)c3nc-2c(C(=O)NC2C(=O)NC(C(C)C)C(=O)N3CCCC3C(=O)N(C)CC(=O)N(C)C(Cc3ccc(O)cc3)C(=O)OC2C)c(N)c1=O (stereo not drawn) (I: TVP[Sar][NMeY] / II: TVP[Sar][NMeY]; ester I:1-I:C, II:1-II:C; linker I:N-II:N via Actinocin(9to1); configuration not given here) | – | > 0.539 µM | > 1 µM | 0.205 µM and 0.0748 µM | 0.221 µM and 0.0252 µM | > 1 µM | – | 2.56 nM and 0.73 nM | 40.7 nM and 11.5 nM | 24.8 nM and 7.01 nM | 22.7 nM and 6.12 nM | 160 nM and 75 nM |
